# From patent publication US20070087985A1, “MRCK-related compositions and methods” (priority 2005, published 2007)
# B1: MRCK-CPC: dominant negative truncated MRCKa, aa930-1492, lacks kinase domain and GTPase binding domain (protein, UniProt O54874 930-1492, looked up, fragment)
# chain: QLIKDTEELRSEKGVEHRDSQHSFLAFLNTPTDALDQFERSPSCTPAGKGRRIADSAPLPVHTPTLRKKGCPASAGFPPKRKTHQFFVKSFTAPTKCHQCTSLMVGLIRQGCSCEVCGFSCHITCVNKAPTTCPVPPEQTKGPLGIDPQKGVGTAYEGHVRIPKPAGVKKGWQRALAVVCDFKLFLYDIAEGKASQPSSVISQVIDMRDEEFSVSSVLASDVIHASRKDIPCIFRVTASQLSAPSDKCSILMLADSETERSKWVGVLSELHKVLKKNKFRDRSVYVPKEAYDSTLPLIKTTQAAAIIDHERVALGNEEGLFVVHVTKDEIIRVGDNKKIHQIELIPSDQLVAVISGRNRHVRLFPMSALDGRETDFYKLAETKGCQTIAAGKVRHGALSCLCVAMKRQVLCYELFQSKTRHRKFKEIQVPCNVQWMAIFSEHLCVGFQSGFLRYPLNGEGSPCNMLHSNDHTLAFITHQPMDAICAVEISNKEYLLCFSSIGIYTDCQGRRSRQQELMWPANPSSCCYNAPYLSIYSENAVDIFDVNSMEWIQTLPLKKVRPL
# modifications: Flag tag
# B2: Par6: full length mouse Par-6 in pFLAG CMV2 (protein, UniProt Q9Z101 1-346, looked up)
# chain: MARPQRTPARSPDSIVEVKSKFDAEFRRFALPRTSVRGFQEFSRLLCVVHQIPGLDVLLGYTDAHGDLLPLTNDDSLHRALASGPPPLRLLVQKRAEGDSSGLAFASNSLQRRKKGLLLRPVAPLRTRPPLLISLPQDFRQVSSVIDVDLLPETHRRVRLHKHGSDRPLGFYIRDGMSVRVAPQGLERVPGIFISRLVRGGLAESTGLLAVSDEILEVNGIEVAGKTLDQVTDMMVANSHNLIVTVKPANQRNNVVRGASGRLTGPSSVGPGPTDPDSDDDSSDLVIENRHPPCSNGLSQGPLCWDLQPGCLLPGAGSSLPSLDSREQANSGWGNGMRGDVSGFSL
# modifications: full-length Flag tag
# notes: full length mouse Par-6 in pFLAG CMV2
# B3: hpak1(83-149): N-terminal autoregulatory domain of Pak1, which inhibits Pak1 activity (protein, UniProt Q13153 83-149, looked up, fragment)
# chain: HTIHVGFDAVTGEFTGMPEQWARLLQTSNITKSEQKKNPQAVLDVLEFYNSKKTSNSQKYMSFTDKS
# modifications: myc tag
# Legend:
# Type in all cases: cell-based
# [1] = system: starved wound edge NIH-3T3 cells; assay: MTOC reorientation in wounded starved monolayers (fixed, stained cells); conditions: for effect on MTOC reorientation induced by LPA: pre-treatment with 0.5 μM CD or 50 μM BB; for MTOC reorientation in starved cells without LPA: microinjected protein or expressed DNA, no other treatment
# Procedure: (§1) NIH-3T3 cells were cultured in DMEM with 10% calf serum, serum starved for 2 days and wounded as previous described (9, 21).
# (§2) Plasmid DNA was purified using Plasmid Midi Kit (Qiagen, Valencia, Calif.) and was microinjected into nuclei as described (38). Expression was detectable within 1-2 hr. Proteins were microinjected as described (9, 39). DIC mAb 74.1 (from K. Pfister, U. of Virginia), was microinjected at 10 mg/ml and Cdc42, Rac and Rho GTPases were microinjected at 1 mg/ml. For double microinjections, 100 μg/ml DNA (MRCK-WT or MRCK-CPC) was injected into the nucleus with 2 mg/ml fluorescein-ovalbumin. After 30 min, labelled cells were injected with DIC mAb, L61Cdc42 or human IgG as a control.
# (§3) Phase contrast and fluorescence images of cells stained for pericentrin or γ-tubulin, β-catenin, DNA, expression tag, MTs. (Tyr tubulin) or injection marker were acquired as described (38, 39). MTOC reorientation was determined as previously described (39). For analysis of nucleus and MTOC position, images were pseudo-colored, aligned with the wound parallel to the X axis and then combined using Metamorph software. The cell perimeter was drawn over the cell-cell contacts (β-catenin, expression tags or injection markers) and the wound edge (Tyr-tubulin or injection markers) and the cell centroid was calculated using Metamorph software. Similarly, the nuclear perimeter was drawn and the centroid of the nucleus calculated. A vector representing the distances from the centroid of the nucleus and the MTOC (γ-tubulin or pericentrin staining and MT focus) to the cell centroid was drawn and resolved into X and Y coordinates (parallel and perpendicular to the leading edge, respectively). To allow comparison between cells, measurements were normalized to cell size. […] At least 30 cells from 3 independent experiments were analysed for each condition and error bars in plots are SEM.
# [2] = system: starved wound edge NIH-3T3 cells; assay: Determination of nucleus and MTOC position relative to the cell centroid; conditions: for effect on LPA-induced rearward nuclear movement / effect on rearward nuclear movement induced by LPA / effect on the position of the MTOC: 2 μM LPA, 2 hr; for effect on rearward nuclear movement induced by LPA / effect on the position of the MTOC: pre-treatment with 0.5 μM CD or 50 μM BB; for rearward nuclear movement in starved cells without LPA: microinjected protein or expressed DNA
# Procedure: as §1, §2, §3
# [3] = system: starved wound edge NIH-3T3 cells; assay: Migration of expressing wound edge cells after serum stimulation; conditions: DNA microinjection, serum for 12 h
# Procedure: Cdc42 and MRCK activate nuclear movement to reorient the MTOC. A. Starved wound edge NIH-3T3 cells were injected with L61Cdc42, N17Cdc42 or Pak-CRIB domain proteins and then treated with 2 μM LPA for 2 hr. Cells were then fixed, stained and the positions of the nucleus and MTOC were determined. MTOC reorientation is indicated as YES (>60%); NO (<40%). B. Starved wound edge NIH-3T3 cells were injected with DNA encoding myc-hPAK1 (hPAK1(83-149)), HA-MRCK-TM or Flag-MRCK-CPC. After expression (2 hr) cells were treated with 2 μM LPA for 2 hr, fixed, stained and the extent of MTOC reorientation determined. C. Serum starved wound edge NIH-3T3 cells were injected with DNA encoding […] HA-L61Cdc42, HA-L61Cdc42 plus flag-MRCK-CPC or flag-MRCK-WT (MRCK-WT). After expression (3 hr), cells were fixed, stained and the extent of MTOC reorientation was determined. D, E. Average nucleus and MTOC positions of cells from B and C were determined and plotted. F. Representative images of cells microinjected with the indicated constructs and treated with LPA as indicated before fixing and staining. Arrows indicate cells with expressed protein (green), pericentrin and β-catenin (red) and DNA (blue). G. Actin (phalloidin staining) in a cell injected with MRCK-TM (arrow) and treated with LPA. […] Cells were fixed and stained and the percentage of expressing cells remaining at the wound edge determined. […]
# [4] = system: wound edge NIH-3T3 cells; assay: Actin distribution (phalloidin staining)
# Procedure: Actin retrograde flow is involved in nuclear movement. A. Region of 3T3-GFPTub cell used for kymograph in B. B. Kymograph showing retrograde movement of MTs and nucleus before and after 2 μM LPA addition. […] The nucleus is the broad dark band at the bottom of the kymograph and begins moving rearward in concert with MTs. C, D. Wound edge starved NIH-3T3 cells were microinjected with R-actin and time lapse images of actin speckles were acquired before (C) or after (D) addition of 2 μM LPA. Kymographs of a region of the lamella are shown (separate cells are shown in C and D). Actin speckles (arrowheads) remain stationary in the absence of LPA (C) but move away from the leading edge upon LPA addition (D). Note that the nucleus remains stationary in the absence of LPA (C) but moves rearward at the same rate as actin speckles after LPA addition (D). E. Starved wounded monolayers of NIH-3T3 cells were either left untreated or treated with 2 μM LPA with or without BB or CD as indicated. After 2 hr, coverslips were fixed, stained and the extent of MTOC reorientation determined. The level of random “reorientation” is ˜33%. F. The average positions of the MTOC and nucleus from the cells treated as in E were determined and plotted. G. Actin distribution (phallodin staining) in wound edge NIH-3T3 cells treated as indicated. Bar, G: 10 μm.
# Cdc42 and MRCK activate nuclear movement to reorient the MTOC. A. Starved wound edge NIH-3T3 cells were injected with L61Cdc42, N17Cdc42 or Pak-CRIB domain proteins and then treated with 2 μM LPA for 2 hr. Cells were then fixed, stained and the positions of the nucleus and MTOC were determined. […] After expression (2 hr) cells were treated with 2 μM LPA for 2 hr, fixed, stained and the extent of MTOC reorientation determined. […] After expression (3 hr), cells were fixed, stained and the extent of MTOC reorientation was determined. D, E. Average nucleus and MTOC positions of cells from B and C were determined and plotted. […] Cells were fixed and stained and the percentage of expressing cells remaining at the wound edge determined. […]
# [5] = system: pSer19 MLC; assay: Phospho-Ser19 MLC quantification; conditions: starved wound edge cells, injected, fixed 2.5 hr later
# Procedure: Total cell extracts prepared in SDS sample buffer were analyzed by western blotting as described (38). For quantification of pSer19-MLC immunofluorescence, average cellular fluorescence intensity was determined with Metamorph software after subtracting background fluorescence (determined for an adjacent cell-free area). Data is from at least two independent experiments and error bars in plots are SEM.
# [6] = 100 nM nocodazole with LPA for 2h
# [7] = microinjected protein, antibody or expressed DNA construct, 2 μM LPA, 2 hr
# [8] = microinjected protein, antibody or expressed DNA construct
# [9] = co-expression with HA-L61Cdc42, 3 hr
molecule,measurement,setting,value
"COC(=O)Nc1nc2ccc(C(=O)c3cccs3)cc2[nH]1 [nocodazole, reference compound]",effect on LPA-induced MTOC reorientation,[1]; [6],blocked MTOC reorientation
same,MTOC position upon nocodazole wash out,"[2]; 100 nM nocodazole washed out, medium with LPA for another 2h",the MTOC returned to the cell center
same,effect on MTOC centration,[2]; [6],interfering with MTOC centration
same,effect on nuclear movement,[2]; [6],not with nuclear movement
"MRCK-TM: dominant negative full length MRCKa with K106A, H1579A and H1582A mutations",effect on LPA-induced MTOC reorientation,[1]; [7],blocked MTOC reorientation
same,effect on LPA-induced rearward nuclear movement,[2]; [8],blocking the rearward movement of the nucleus
same,effect on cell migration (expressing cells remaining at the wound edge),[3],migration was inhibited
same,effect on LPA-induced changes in the actin cytoskeleton,"[4]; cell injected with DNA construct, treated with LPA",did not have a major effect
"Cc1ccc2c(c1)C(=O)C1(O)CCN(c3ccccc3)C1=N2 (stereo not drawn) [BB, blebbistatin, reference compound]",effect on MTOC reorientation induced by LPA,"[1]; 2 μM LPA, 2 hr",blocked
same,effect on rearward nuclear movement induced by LPA,[2],blocked
same,effect on the position of the MTOC,[2],without affecting
same,effect on LPA-induced changes in the actin cytoskeleton,[4]; CD or BB with 2 μM LPA,blocked
L61Cdc42: constitutively active L61Cdc42 protein (microinjected) or HA-L61Cdc42 DNA,MTOC reorientation in starved cells without LPA,[1],resulted in MTOC reorientation
same,rearward nuclear movement in starved cells without LPA,[2]; no other treatment,induced rearward nuclear movement
same,pSer19 MLC immunofluorescence compared to noninjected cells,[5],substantially increased
N17Cdc42: dominant-negative N17Cdc42 protein,effect on LPA-induced rearward nuclear movement,[2]; [8],blocked
"C=C1[C@@H](C)[C@H]2[C@H](Cc3ccccc3)NC(=O)[C@]23[C@H](OC(C)=O)/C=C/[C@@](C)(O)C(=O)[C@@H](C)C/C=C/[C@H]3[C@@H]1O [CD, cytochalasin D, reference compound]",effect on MTOC reorientation,[1]; lower concentrations of CD (below 0.5 μM),had no effect
same,effect on MTOC reorientation induced by LPA,"[1]; 2 μM LPA, 2 hr",blocked
same,effect on rearward nuclear movement induced by LPA,[2],blocked
same,effect on the position of the MTOC,[2],without affecting
same,effect on LPA-induced changes in the actin cytoskeleton,[4]; CD or BB with 2 μM LPA,blocked
wild type MRCK: wild type full length Rat MRCKa,MTOC reorientation in starved cells without LPA,[1],induced
same,position of the MTOC in starved cells without LPA,"[2]; expressed DNA, no other treatment",maintaining the MTOC at the cell centroid
same,rearward nuclear movement in starved cells without LPA,[2]; no other treatment,induced
same,pSer19 MLC immunofluorescence compared to noninjected cells,[5],increased
same,effect on cell migration (expressing cells remaining at the wound edge),[3],no effect on cell migration
B1,effect on MTOC reorientation induced by L61Cdc42,[1]; [9],inhibited
same,effect on LPA-induced MTOC reorientation,[1]; [7],blocked MTOC reorientation
same,effect on nuclear movement induced by L61Cdc42,[2]; [9],inhibited
same,effect on LPA-induced rearward nuclear movement,[2]; [8],blocking the rearward movement of the nucleus
same,pSer19 MLC immunofluorescence compared to noninjected cells,[5],no effect
B2,effect on LPA-induced MTOC reorientation,[1]; [7],blocked
same,effect on LPA-induced rearward nuclear movement,[2]; [8],unaffected
same,position of the MTOC relative to the cell centroid,"[2]; microinjected protein, antibody or expressed DNA construct, LPA-treated (L61Cdc42 without LPA)",displacement of the MTOC from its position at the centroid
B3,effect on LPA-induced MTOC reorientation,[1]; [7],still reoriented their MTOC
same,effect on LPA-induced rearward nuclear movement,[2]; [8],moved their nuclei rearward
